Source: patent US20150065494A1, “AMINOSTYRYLBENZOFURAN DERIVATIVES AS INHIBITORS AGAINST BETA-AMYLOID FIBRIL FORMATION, AND PHARMACEUTICAL COMPOSITION COMPRISING SAME” (KOREA INSTITUTE OF SCIENCE AND TECHNOLOGY, priority 2012, published 2015)
Structures can show the parent of a compound that is named as a salt. Where two headings read alike, the source gives them in different places.

Columns and labels:
[1] = Passage test through the blood-brain barrier (brain tissue concentration); type: in vivo, ICR mice and SD rats; conditions: for Kp: brain
Protocol: (§1) Three 7 week-old ICR mice (weight: approximately 30 g) and three 8 week-old SD rats (weight: approximately 250 g) were used per test group. A solution prepared by dissolving a hydrochloride salt of the compound of Example 3 in excipient (DMSO/Tween 20/saline: 0.1/0.6/2.3, v/v/v) was administered to each experimental animal. The test compound was intravenously administered in an amount of 5 mL per kg of body weight through the fine vein or orally administered in an amount of 10 mL per kg of body weight.
At 0.5, 1, 2, 4, 10 and 24 hrs after the administration of the test compound, the mice and rats were subjected to insufflations narcosis using isoflorane, followed by cutting the abdomen open. Subsequently, 1 mL of blood was collected from abdominal veins into the tube containing heparin (1000 IU/mL, 3 μL). The obtained blood samples were centrifuged for 2 min at 12,000 rpm to obtain plasma. The obtained plasmas were kept in a freezer at −80° C. until the analysis.
The mice and rats from which the blood samples were obtained were subjected to bloodletting, and then, the brain tissues of the mice and rats was collected. The brain tissue thus obtained was washed with physiological saline 1 or 2 times to remove blood. The weight of the brain tissue was measured after the removal of adipose tissue and peripheral tissue. 4% bovine serum albumin (BSA) solution diluted with 10-fold was added to the brain tissue. The resulting solution was subjected to homogenization using a homogenizer. The diluted homogenate thus obtained was placed in 2 mL tube and was kept in a freezer at −80° C. until the analysis. All of the treatments to the sample were performed in ice.
(§2) 50 μL of plasma was placed in a 2.0 mL tube with a cap (Eppendorf Co.). An internal standard solution and 1 mL of ethyl acetate as an extract solvent were added to the resulting solution. The resulting solution was mixed by using thermomixer (Eppendorf Co.) for 5 min at 1400 rpm, and then subjected to centrifugation (Eppendorf Co.). The supernatant was collected and concentrated at 35° C. by using a cyclone. The residue was re-dissolved in 50 μL of mobile phase and 5 μL of the resulting solution was injected into LC/MS and analyzed.
(§3) In Table 3, “iv” refers to intravenous injection; “po” refers to per oral; “AUC plasma” refers to an area under the plasma level-time curve; “Cmax” refers to a maximum plasma concentration; “Tmax” refers to a time to reach Cmax; “BA” refers to bioavailability (%) according to Equation 2 below; “AUC Brain” refers to an area under the brain tissue level-time curve; and “AUCBrain/AUCPlasma” refers to a passage rate of the test compound to the brain.

[2] = Pharmacokinetics test in mice (dose-dependent); type: in vivo, ICR mice; conditions: for AUC ratio / Cmax ratio / AUC / Cmax / Tmax / half-life: po; for AUC / Cmax / Tmax / half-life: ICR, mouse, plasma
Protocol: Two 6 week-old ICR mice (weight: approximately 25 g) were used per test group. A solution prepared by dissolving the compound of Example 3 in distilled water was administered to each experimental animal. The test compound was orally administered in an amount of 10 mL per kg of body weight.
At 0.5, 1, 2, 4, 10 and 24 hrs after the oral administration of the test compound, the blood was collected from jugular veins into a tube containing heparin (1,000 IU/mL, 3 μL). The obtained plasmas were centrifuged (12,000 rpm, 2 min, Eppendorf), and contained in a freezer at −80° C. until analysis.
as §2, with “cap (Eppendorf Co.) and acidified by adding 20 μL of 0.1% formic acid thereto. An internal” for “cap (Eppendorf Co.). An internal”
In Table 4, “po” refers to per oral; “AUC plasma” refers to an area under the plasma level-time curve; “Cmax” refers to a maximum plasma concentration; and “Tmax” refers to a time to reach Cmax.

[3] = Pharmacokinetics test (blood concentration) in mice and rats; type: in vivo, ICR mice and SD rats
Protocol: as §1, with “v/v/v) or distilled water” for “v/v/v)”
At 0.5, 1, 2, 4, 10, and 24 hrs after the oral administration of the test compounds, the blood was collected from periorbital veins into the tube containing heparin (1000 IU/mL, 3 μL) for the mice, and from jugular veins for rats. The blood samples were centrifuged (12,000 rpm for 2 min, Eppendorf Co.) to obtain plasmas and the obtained plasmas were kept in a freezer until the analysis at −80° C.
as §2, with “cap (Eppendorf Co.) and acidified by adding 20 μL of 0.1% formic acid thereto. An internal” for “cap (Eppendorf Co.). An internal”, “by using a thermomixer (Eppendorf” for “by using thermomixer (Eppendorf”, “min at 1,400 rpm, and” for “min at 1400 rpm, and”
as §3
Bioavailability (%)=[(AUCpo/AUCiv)×(Doseiv/Dosepo)×100]
In the above Equation, AUCpo refers to an area under the blood concentration time curve (AUC) after per oral administration, AUCiv means an AUC after the intravenous injection; Doseiv refers to a dose of the intravenous injection; and Dosepo refers to a dose of the per os.

[4] = target: T1, beta-amyloid 42 (Aβ42) (Homo sapiens, UniProt P05067); experiment: Inhibitory effect on the formation of beta-amyloid fibrils in vitro (ThT fluorescence assay); type: biochemical; conditions: for inhibition at 10 µM: 10 μM compound, 25 μM Aβ42, ThT fluorescence
T1 construct: Beta-amyloid 42 (Aβ42) was dissolved in dimethylsulfoxide (DMSO) to form a 250 mM Aβ42 stock solution
T1 sequence (P05067 672-713 limits assumed): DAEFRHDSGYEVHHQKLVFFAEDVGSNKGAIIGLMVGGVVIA
Protocol: Beta-amyloid 42 (Aβ42) was dissolved in dimethylsulfoxide (DMSO) to form a […] Aβ42 stock solution. In addition, ThT (thioflavin T) was dissolved in distilled water to obtain a concentration of 1 mM and subsequently diluted with 50 mM glycin buffer (pH 8.5) to yield a 5 μM ThT stock solution. 45 μL of PBS (phosphate buffer saline, pH 7.4) was added to each of a 96-well fluorescence microplate (white, F-bottom). 5 μL of the 250 μM Aβ42 stock solution was added to each well. The final concentration of each compound obtained in Examples was in a range of 10 to 0.001 μM by adding 2 μL of a solution, which was prepared by dissolving the subject compounds obtained in Examples in DMSO, to each well. At this time, the final concentration of Aβ42 in each well was 25 μM. The plate was then incubated for 1 hr at room temperature, and 150 μL of the 5 μM ThT stock solution was added to each well.
The fluorescence intensity of each well was determined with the multi-label fluorescence counter (LS-55 Luminescence spectrometer: Perkin Elmer) at an excitation wavelength of 450 nm (excitation slit width: 10 nm) and an emission wavelength of 482 nm (emission slit width: 10 nm), while adjusting counting time to 1 second. The control group was prepared by adding PBS solution, Aβ42 and DMSO, without adding the inventive compound prepared above. A percent inhibition on the formation of beta-amyloid fibrils was calculated in accordance with the following equation, and IC50 was calculated by using GraphPad Prism version 4.03 Program.
% Inhibition=[1−(C−D)/(A−B)]×100
A (control group)=fluorescence intensity in a group treated with PBS solution, Aβ42 and DMSO
B (blank)=fluorescence intensity in a group treated with PBS solution and DMSO
C (experimental group)=fluorescence intensity in a group treated with PBS solution, Aβ42, the inventive compound and DMSO
D (compensation value to the experimental group) =fluorescence intensity in a group treated with PBS solution, the inventive compound and DMSO

SMILES: CN(C)CCCOc1ccc2cc(/C=C/c3ccc(N(C)C)cc3)oc2c1 [Example 3, (E)-6-(3-dimethylaminopropoxy)-2-(4-dimethylaminostyryl)benzofuran]
- Kp ([1]; read-out: passage ability compared with plasma (blood-brain barrier)): ≥ 1
- AUC ratio ([2]; 10 mg/kg, relative to AUC at 10 mg/kg): 1.0
- AUC ratio ([2]; 10 mg/kg, relative to AUC at 10 mg/kg, listed as Compound of Example 3, 10 mg/kg): 1
- Cmax ratio ([2]; 10 mg/kg, relative to Cmax at 10 mg/kg): 1
- AUC ratio ([2]; 30 mg/kg, AUC (30 mg/kg)/AUC (10 mg/kg)): 4.2
- Cmax ratio ([2]; 30 mg/kg, Cmax (30 mg/kg)/Cmax (10 mg/kg)): 4.7
- AUC ratio ([2]; 100 mg/kg, AUC (100 mg/kg)/AUC (10 mg/kg)): 10.4
- Cmax ratio ([2]; 100 mg/kg, Cmax (100 mg/kg)/Cmax (10 mg/kg)): 9.4
- AUC ([2]; 10 mg/kg): 443 ng·h/mL
- Cmax ([2]; 10 mg/kg): 40.4 ng/mL
- Tmax ([2]; 10 mg/kg): 0.5 h
- half-life ([2]; 10 mg/kg): 4.9 h
- AUC ([2]; 30 mg/kg): 1890 ng·h/mL
- Cmax ([2]; 30 mg/kg): 188 ng/mL
- Tmax ([2]; 30 mg/kg): 2 h
- half-life ([2]; 30 mg/kg): 5.4 h
- AUC ([2]; 100 mg/kg): 4580 ng·h/mL
- Cmax ([2]; 100 mg/kg): 378 ng/mL
- Tmax ([2]; 100 mg/kg): 4 h
- half-life ([2]; 100 mg/kg): 23.5 h
- dose-dependence of pharmacokinetics (linearity) ([2]; oral 10, 30 and 100 mg/kg): linear pharmacokinetics

SMILES: CN(C)CCCOc1ccc2cc(/C=C/c3ccc(N(C)C)cc3)oc2c1.Cl [Example 23, (E)-6-(3-dimethylaminopropoxy)-2-(4-dimethylaminostyryl)benzofuran hydrochloride]
- BA ([3]; 10.0 mg/kg po vs 5.0 mg/kg iv): 43.4%
- AUC ([3]; plasma, 5.0 mg/kg, iv, n = 3): 535 ng·h/mL
- AUC ([3]; plasma, 10.0 mg/kg, po, n = 3): 472 ng·h/mL
- Cmax ([3]; plasma, 10.0 mg/kg, po, n = 3): 62.7 ng/mL
- Tmax ([3]; plasma, 10.0 mg/kg, po, n = 3): 4 h
- AUC Brain ([1]; 5.0 mg/kg, iv, brain tissue): 54,114.7 ng · h/ml
- AUC Brain ([1]; 10.0 mg/kg, po, brain tissue): 27,412 ng · h/ml
- Cmax (brain) ([1]; 10.0 mg/kg, po, brain tissue): 3,828 ng/ml
- Tmax ([1]; 10.0 mg/kg, po, brain tissue): 10 h
- Kp ([1]; 5.0 mg/kg, iv, read-out: AUCBrain/AUCPlasma): 101
- Kp ([1]; 10.0 mg/kg, po, read-out: AUCBrain/AUCPlasma): 58.1
- Aβ42 % inhibition compared with comparative compound curcumin ([4]; 10 μM): equal to or greater than that of the comparative compound, curcumin
- inhibition at 10 µM [4]: ≥ 70%

SMILES: CN(C)c1ccc(/C=C/c2cc3ccc(OCCCc4cccnc4)cc3o2)cc1 [Example 38, (E)-6-(3-(3-pyridinyl)propoxy)-2-(4-dimethylaminostyryl)benzofuran hydrochloride]
- inhibition at 10 µM [4]: < 50%
